Marks after values point to notes of the source that are not given here. One block for each compound: values may come before it.
What was measured:
CYP3A4 = conditions: cited from earlier work
human recombinant CYP1A1 = biological target: T1, human recombinant CYP1A1 (Homo sapiens, UniProt P04798); assay: Vandetanib oxidation by human recombinant CYP1A1 (Supersomes); assay type: in vitro ADME
T1 construct: purchased Gentest Corp; host or cells: insect cells (baculovirus)
T1 sequence (P04798 1-512): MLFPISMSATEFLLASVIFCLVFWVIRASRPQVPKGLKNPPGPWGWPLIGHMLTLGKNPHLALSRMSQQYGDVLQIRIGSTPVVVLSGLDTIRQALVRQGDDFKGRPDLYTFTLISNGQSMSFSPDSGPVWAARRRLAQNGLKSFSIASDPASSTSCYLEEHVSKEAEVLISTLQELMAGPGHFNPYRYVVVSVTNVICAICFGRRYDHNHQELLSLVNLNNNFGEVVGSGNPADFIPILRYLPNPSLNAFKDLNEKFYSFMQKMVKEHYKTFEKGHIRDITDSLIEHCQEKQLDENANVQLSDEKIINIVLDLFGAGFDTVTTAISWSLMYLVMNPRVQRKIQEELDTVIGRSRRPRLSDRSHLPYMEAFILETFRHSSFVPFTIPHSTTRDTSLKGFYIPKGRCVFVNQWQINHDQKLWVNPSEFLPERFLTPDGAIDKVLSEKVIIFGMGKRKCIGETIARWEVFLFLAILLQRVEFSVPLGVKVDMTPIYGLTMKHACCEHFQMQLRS
Description: (§1) Vandetanib was from LC Laboratories (Woburn, MA, USA). Ketoconazole, NADPH, methimazol and other chemicals were all purchased from Sigma-Aldrich (St. Louis, MO, USA). The purity of all chemicals met the standards of American Chemical Society, unless noted otherwise. All animal experiments were conducted in accordance with the Regulations for the Care and Use of Laboratory Animals (311/1997, Ministry of Agriculture, Czech Republic), which follows the Declaration of Helsinki. Male Wistar rats (~125–150 g; AnLab, Czech Republic), male C57BL/6 mice ([…]; CXR Bioscience Ltd., Dundee, UK), and male New Zealand rabbits (2.5–3 kg; AnLab, Czech Republic) were employed as animal models. Animals were placed in cages in temperature- and humidity-controlled rooms, acclimatized for five days and maintained at 22 °C with a 12 h light/dark period. Standardized diet and water were provided ad libitum. Rats, mice and rabbits used to prepare microsomal fraction from untreated animals were sacrificed by cervical dislocation, livers snap-frozen in liquid nitrogen and stored at −80 °C until further processing (see below). For controls, livers of the animals were removed immediately after sacrifice, divided into small pieces (~1 g), snap-frozen in liquid nitrogen, and stored at −80 °C until isolation of microsomal fractions. Pooled microsomes were used for all in vitro experiments in the present study and prepared from 10 livers/group for all animal species following established protocols. Microsomal fractions were stored at −80 °C until analysis. Protein concentrations in the microsomal fractions were assessed using the bicinchoninic acid protein assay with bovine serum albumin as a standard. Male human hepatic microsomes (pooled sample) (sample LOT: 3043885) were from Gentest Corp. (Woburn, MA, USA). Microsomes from livers of twelve human donors were obtained from Gentest Corp. (Woburn, MA, USA) (cat. no. HG43–1, HG103, HG74, HG93, HG24, HG27, HG23, HG32, HK31, HK34, HG03, and HG42). Each human microsomal sample has been characterized for CYP, FMO and protein contents and specific CYP activities by Gentest Corp. We reanalyzed each microsomal preparation for specific CYP, NADPH:CYP reductase (POR) and FMO activities by assays described in the protocols of Gentest Corp. Our data were similar to those reported by Gentest Corp. in their specification sheets. […]

human hepatic microsomes [1] = assay: Oxidation of vandetanib by human hepatic microsomes; assay type: in vitro ADME
Description: The reaction was initiated by adding vandetanib.

rat hepatic microsomes = assay: Oxidation of vandetanib by rat hepatic microsomes; assay type: in vitro ADME; conditions: 50 µM vandetanib, N-oxide higher
Description: (§2) Vandetanib was from LC Laboratories (Woburn, MA, USA). Ketoconazole, NADPH, methimazol and other chemicals were all purchased from Sigma-Aldrich (St. Louis, MO, USA). The purity of all chemicals met the standards of American Chemical Society, unless noted otherwise. All animal experiments were conducted in accordance with the Regulations for the Care and Use of Laboratory Animals (311/1997, Ministry of Agriculture, Czech Republic), which follows the Declaration of Helsinki. Male Wistar rats (~125–150 g; AnLab, Czech Republic), male C57BL/6 mice ([…]; CXR Bioscience Ltd., Dundee, UK), and male New Zealand rabbits (2.5–3 kg; AnLab, Czech Republic) were employed as animal models. Animals were placed in cages in temperature- and humidity-controlled rooms, acclimatized for five days and maintained at 22 °C with a 12 h light/dark period. Standardized diet and water were provided ad libitum. Rats, mice and rabbits used to prepare microsomal fraction from untreated animals were sacrificed by cervical dislocation, livers snap-frozen in liquid nitrogen and stored at −80 °C until further processing (see below). […] Protein concentrations in the microsomal fractions were assessed using the bicinchoninic acid protein assay with bovine serum albumin as a standard. […]

[2] = test system: rabbit hepatic microsomes; assay: Oxidation of vandetanib by rabbit hepatic microsomes; assay type: in vitro ADME; conditions: 50 µM vandetanib, N-oxide higher
Description: as §2

mouse hepatic microsomes = assay: Oxidation of vandetanib by mouse hepatic microsomes; assay type: in vitro ADME; conditions: 50 µM vandetanib, N-oxide higher
Description: as §2

human liver microsomes [3] = assay: Vandetanib metabolite formation by hepatic microsomes of 12 human donors; assay type: in vitro ADME; conditions: detection limit < 0.002
Description: as §1, with “sheets. The content of CYP, specific CYP and FMO activities in each human hepatic microsomes [phenacetin-O-deethylation (CYP1A2), coumarin-7-hydroxylation (CYP2A6), (S)-mephenytoin-N-demethylase (CYP2B6), paclitaxel-6α-hydroxylation (CYP2C8), diclofenac-4’-hydroxylation (CYP2C9), (S)-mephenytoin-4′-hydroxylation (CYP2C19), bufuralol-1’-hydroxylation (CYP2D6), chlorzoxazone-6-hydroxylation (CYP2E1), testosterone-6β-hydroxylation (CYP3A4), lauric acid-12-hydroxylation (CYP4A), methyl-p-tolyl sulfide oxidase (FMO)] are shown in Table 2. Human recombinant enzymes were used in the forms of Supersomes™ and obtained from Gentest Corp. In Supersomes™ microsomal fractions were isolated from insect cells that are transfected with baculovirus constructs containing cDNA of human CYP enzymes (CYP1A1/2, 1B1, 2A6, 2B6, 2C8/9/18/19/, 2D6, 2E1, 3A4). These Supersomes™ also express NADPH:CYP oxidoreductase (POR). However, because they are microsomes (particles of broken endoplasmic reticulum), other enzymes (proteins) of the endoplasmic reticulum membrane (like NADH:cytochrome b5 reductase and cytochrome b5) are also expressed at basal levels in these Supersomes™. We also utilized Supersomes™ which over-expressed cytochrome b5, in a molar ratio of CYP to cytochrome b5 of 1 to 5. In Supersomes™ where cytochrome b5 was not over-expressed (see above) pure cytochrome b5 was added to reach a molar ratio of CYP to cytochrome b5 of 1 to 5. Reconstitution of Supersomes™ with purified cytochrome b5 was performed as described previously.” for “sheets.”

human hepatic microsomes [4] = assay: Correlation of CYP- and FMO-linked activities with vandetanib metabolite formation in human hepatic microsomes; assay type: in vitro ADME; conditions: 12 human liver microsomal samples; for Correlation coefficient (r) of metabolite amount with CYP2E1 activity: chlorzoxazone-6-hydroxylase
Description: as §1, with “sheets. The content of CYP, specific CYP and FMO activities in each human hepatic microsomes [phenacetin-O-deethylation (CYP1A2), coumarin-7-hydroxylation (CYP2A6), (S)-mephenytoin-N-demethylase (CYP2B6), paclitaxel-6α-hydroxylation (CYP2C8), diclofenac-4’-hydroxylation (CYP2C9), (S)-mephenytoin-4′-hydroxylation (CYP2C19), bufuralol-1’-hydroxylation (CYP2D6), chlorzoxazone-6-hydroxylation (CYP2E1), testosterone-6β-hydroxylation (CYP3A4), lauric acid-12-hydroxylation (CYP4A), methyl-p-tolyl sulfide oxidase (FMO)] are shown in Table 2. Human recombinant enzymes were used in the forms of Supersomes™ and obtained from Gentest Corp. In Supersomes™ microsomal fractions were isolated from insect cells that are transfected with baculovirus constructs containing cDNA of human CYP enzymes (CYP1A1/2, 1B1, 2A6, 2B6, 2C8/9/18/19/, 2D6, 2E1, 3A4). These Supersomes™ also express NADPH:CYP oxidoreductase (POR). However, because they are microsomes (particles of broken endoplasmic reticulum), other enzymes (proteins) of the endoplasmic reticulum membrane (like NADH:cytochrome b5 reductase and cytochrome b5) are also expressed at basal levels in these Supersomes™. We also utilized Supersomes™ which over-expressed cytochrome b5, in a molar ratio of CYP to cytochrome b5 of 1 to 5. In Supersomes™ where cytochrome b5 was not over-expressed (see above) pure cytochrome b5 was added to reach a molar ratio of CYP to cytochrome b5 of 1 to 5. Reconstitution of Supersomes™ with purified cytochrome b5 was performed as described previously.” for “sheets.”

human recombinant FMO1 = assay: Vandetanib oxidation by human recombinant FMOs (Supersomes); assay type: in vitro ADME; conditions: recombinant FMO1 vs FMO3
Description: as §2

human liver microsomes [5] = assay: Vandetanib metabolite formation by hepatic microsomes of 12 human donors; assay type: in vitro ADME; conditions: human hepatic microsomal sample HK23; detection limit < 0.002
VEGFR and EGFR = conditions: compared to the parent drug; cited from earlier work
[6] = biological target: CYP enzymes in human liver microsomes (Homo sapiens, UniProt P08684); assay: Effects of inhibitors on N-desmethylvandetanib formation in human liver microsomes; conditions: inhibitor 50 μM equimolar to vandetanib (50 μM), 0.1 nmol microsomal CYP
Description: After the incubations, 5 µL of 1 mM phenacetine (dissolved in methanol) was added as internal standard. The reaction was stopped by extraction with dichlormethane (2 × 1 mL).
Inhibition studies in human liver microsomes were essentially conducted as reported previously.

Chain of CYP enzymes in human liver microsomes (P08684 2-503): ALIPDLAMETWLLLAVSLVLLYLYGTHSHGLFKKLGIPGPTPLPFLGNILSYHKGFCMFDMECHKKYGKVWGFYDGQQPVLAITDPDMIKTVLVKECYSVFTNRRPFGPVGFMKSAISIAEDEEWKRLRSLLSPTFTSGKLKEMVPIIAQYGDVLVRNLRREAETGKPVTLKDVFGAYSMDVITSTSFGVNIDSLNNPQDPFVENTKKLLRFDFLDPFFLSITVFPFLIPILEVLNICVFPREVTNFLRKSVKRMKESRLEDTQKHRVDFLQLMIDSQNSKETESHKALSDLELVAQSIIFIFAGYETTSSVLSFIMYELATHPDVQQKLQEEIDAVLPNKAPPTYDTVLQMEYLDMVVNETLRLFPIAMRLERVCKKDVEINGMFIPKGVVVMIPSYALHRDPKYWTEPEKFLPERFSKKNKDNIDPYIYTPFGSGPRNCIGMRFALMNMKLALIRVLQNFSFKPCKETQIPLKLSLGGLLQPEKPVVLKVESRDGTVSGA
Chain of CYP enzymes in human liver microsomes (P16435 2-677, further chain): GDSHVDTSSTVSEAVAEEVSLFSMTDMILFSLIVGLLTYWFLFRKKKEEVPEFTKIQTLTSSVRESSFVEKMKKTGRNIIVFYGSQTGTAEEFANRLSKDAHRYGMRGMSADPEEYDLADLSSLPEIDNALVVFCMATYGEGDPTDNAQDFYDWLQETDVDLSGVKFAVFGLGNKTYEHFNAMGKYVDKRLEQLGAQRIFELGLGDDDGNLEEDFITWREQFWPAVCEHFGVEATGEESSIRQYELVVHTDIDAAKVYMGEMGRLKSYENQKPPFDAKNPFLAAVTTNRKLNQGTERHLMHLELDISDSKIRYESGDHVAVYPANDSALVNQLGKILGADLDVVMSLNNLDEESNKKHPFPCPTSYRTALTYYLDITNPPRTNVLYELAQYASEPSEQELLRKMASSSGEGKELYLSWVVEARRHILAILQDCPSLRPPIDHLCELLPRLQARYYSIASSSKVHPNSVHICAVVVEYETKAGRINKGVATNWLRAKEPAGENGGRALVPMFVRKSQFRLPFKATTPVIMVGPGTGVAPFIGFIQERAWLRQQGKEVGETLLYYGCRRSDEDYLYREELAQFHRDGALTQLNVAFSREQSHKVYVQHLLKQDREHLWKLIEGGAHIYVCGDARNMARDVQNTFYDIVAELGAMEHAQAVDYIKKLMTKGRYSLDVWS

SMILES: CCC(C)n1ncn(-c2ccc(N3CCN(c4ccc(OCC5COC(Cn6cncn6)(c6ccc(Cl)cc6Cl)O5)cc4)CC3)cc2)c1=O (stereo not shown) [itraconazol]
inhibition of the formation of N-desmethylvandetanib after vandetanib treatment (CYP3A4): almost ineffective

VMax, maximal velocity of N-desmethylvandetanib formation (human recombinant CYP1A1; CYP1A1, hyperbolic kinetics): 0.76 ± 0.02 peak area/min/nmol CYP
K0.5, substrate concentration corresponding to half-maximal velocity (human recombinant CYP1A1; CYP1A1, oxidation to N-desmethylvandetanib): 35.12 ± 2.75 µM
SMILES: COc1cc2c(Nc3ccc(Br)cc3F)ncnc2cc1OCC1CCN(C)CC1 [vandetanib, N-(4-bromo-2-fluorophenyl)-6-methoxy-7-[(1-methylpiperidin-4-yl)-methoxy]-quinazolin-4-amine, reference compound]

vandetanib-N-oxide formed at fold lower amounts than N-desmethylvandetanib (human hepatic microsomes [1]): ~ 4 fold
F, fold difference between formation of N-desmethylvandetanib and vandetanib-N-oxide (rat hepatic microsomes): 4- to 8 fold
F, fold difference between formation of N-desmethylvandetanib and vandetanib-N-oxide [2]: 4- to 8 fold
F, fold difference between formation of N-desmethylvandetanib and vandetanib-N-oxide (mouse hepatic microsomes): 4- to 8 fold
vandetanib-N-oxide (M2) formed (human liver microsomes [3]; human hepatic microsomal sample HG24): 0.004 peak area/(mg protein × min)
vandetanib-N-oxide (M2) formed (human liver microsomes [3]; human hepatic microsomal sample HG42): 0.015 peak area/(mg protein × min)
vandetanib-N-oxide (M2) formed (human liver microsomes [3]; human hepatic microsomal sample HG74): 0.004 peak area/(mg protein × min)
vandetanib-N-oxide (M2) formed (human liver microsomes [3]; human hepatic microsomal sample HG93): 0.112 peak area/(mg protein × min)
vandetanib-N-oxide (M2) formed (human liver microsomes [3]; human hepatic microsomal sample HG103): 0.004 peak area/(mg protein × min)
vandetanib-N-oxide (M2) formed (human liver microsomes [3]; human hepatic microsomal sample HK31): 0.015 peak area/(mg protein × min)
Correlation coefficient (r) of metabolite amount with POR (human hepatic microsomes [4]): 0.035
Correlation coefficient (r) of metabolite amount with Total CYPs (human hepatic microsomes [4]): 0.166
Correlation coefficient (r) of metabolite amount with CYP2C19 activity (human hepatic microsomes [4]; (S)-mephenytoin-4′-hydroxylase): 0.088
Correlation coefficient (r) of metabolite amount with CYP2B6 activity (human hepatic microsomes [4]; (S)-mephenytoin-N-demethylase): 0.093
Correlation coefficient (r) of metabolite amount with CYP2D6 activity (human hepatic microsomes [4]; bufuralol-1′-hydroxylase): −0.343
Correlation coefficient (r) of metabolite amount with CYP2E1 activity (human hepatic microsomes [4]): 0.714
Correlation coefficient (r) of metabolite amount with CYP2E1 activity (human hepatic microsomes [4]; listed as M2): 0.714 **
Correlation coefficient (r) of metabolite amount with CYP2A6 activity (human hepatic microsomes [4]; coumarine-7-hydroxylase): −0.339
Correlation coefficient (r) of metabolite amount with CYP2C9 activity (human hepatic microsomes [4]; diclofenac-4′-hydroxylase): −0.039
Correlation coefficient (r) of metabolite amount with FMO activity (human hepatic microsomes [4]; methyl-p-tolyl sulfide oxidase, listed as M2): 0.736 **
Correlation coefficient (r) of metabolite amount with CYP2C8 activity (human hepatic microsomes [4]; paclitaxel-6α-hydroxylase): 0.288
Correlation coefficient (r) of metabolite amount with CYP1A2 activity (human hepatic microsomes [4]; phenacetin-O-deethylase): −0.157
Correlation coefficient (r) of metabolite amount with CYP3A4 activity (human hepatic microsomes [4]; testosterone-6β-hydroxylase): −0.200
efficiency of FMO1 to form vandetanib-N-oxide relative to FMO3 (human recombinant FMO1): over 5 times
vandetanib-N-oxide (M2) formed (human liver microsomes [5]): 0.008 peak area/(mg protein × min)
SMILES: COc1cc2c(Nc3ccc(Br)cc3F)ncnc2cc1OCC1CC[N+](C)([O-])CC1 (stereo not shown) [vandetanib-N-oxide]
pharmacological activity relative to vandetanib (fold less active) (VEGFR and EGFR): more than 50 fold

SMILES: O=c1cc(-c2ccccc2)oc2c1ccc1ccccc12 [α-Napththoflavone, α-naphthoflavone]
% of Inhibition, N-Desmethyvandetanib Formation [6]: 0%
% of Inhibition, N-Desmethyvandetanib Formation ([6]; listed as α-NF): no inhibitory effects
